PMC6405930, “Conservation of the Amyloid Interactome Across Diverse Fibrillar Structures” (Scientific Reports, 2019)
pKd: −log10 of the molar value.

What was measured:
[1] = test system: T1, Ab1 fibrils; assay: Determination of the binding capacity (dye depletion from supernatant); design: species or system human; conditions: 2 nmol dye (20 µM) with 10 μg fibril material, one hour
T1 construct: Synthetic amyloid β peptide 1–40 was purchased from Caslo Aps (Lyngby, Denmark); purchased Caslo Aps (Lyngby, Denmark); host or cells: synthetic peptide
Experimental: (§1) Control samples (without fibril material) were prepared similarly. Fibrils and fibril-bound ligand were pelleted by centrifugation (17,000 g, 30 min) and the supernatant (90 μL) was transferred to a 96 well half-area plate (Corning 3881).

[2] = test system: T2, Ab2 fibrils; assay: as above; design: species or system human; conditions: 2 nmol dye (20 µM) with 10 μg fibril material, one hour
T2 construct: Two structurally distinct fibrils of the Aβ(1–40) peptide associated with AD
Experimental: as §1

[3] = molecular target: fibrils of a short Aβ fragment; design: method as in PMID 23878726; conditions: read-out: dissociation constant; cited from earlier work
[4] = molecular target: T3, glucagon fibrils (Homo sapiens, UniProt P01275); assay: Determination of the binding capacity (dye depletion from supernatant); conditions: 2 nmol dye (20 µM) with 10 μg fibril material, one hour
T3 construct: fibrils of the peptide hormone glucagon
T3 sequence (P01275 53-81 limits assumed): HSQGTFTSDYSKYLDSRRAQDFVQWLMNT
Experimental: as §1

[5] = molecular target: T4, C-36 fibrils (Homo sapiens, UniProt P01009); assay: as above; conditions: 2 nmol dye (20 µM) with 10 μg fibril material, one hour
T4 construct: the 36 residue C-terminal fragment of α1-antitrypsin (C-36)
T4 sequence (P01009 383-418 limits assumed): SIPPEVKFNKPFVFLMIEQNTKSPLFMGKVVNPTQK
Experimental: as §1

[6] = molecular target: T5, αSN fibrils (Homo sapiens, UniProt P37840); assay: as above; conditions: 2 nmol dye (20 µM) with 10 μg fibril material, one hour
Experimental: as §1

[7] = molecular target: T3, glucagon fibrils; assay: Fibril incubation with plasma, quantitative MS/MS of bound proteins; format: binding; conditions: 50:1 w/w plasma protein:fibril
[8] = test system: T1, Ab1 fibrils; assay: Fibril incubation with CSF, quantitative MS/MS of bound proteins; format: binding, human; conditions: 4:1 w/w CSF protein:fibril
Experimental: (§2) Plasma and CSF solutions were centrifuged (40,000 g, 20 min) to remove any aggregates. The protein concentration was determined using 280 nm absorbance assuming 1 Abs = 1 mg/mL. […] Control samples (without fibril material) were prepared similarly. All samples were incubated at room temperature for one hour under gentle agitation. Fibrils and fibril-bound proteins were pelleted by centrifugation at 17,000 g for 30 minutes. The supernatant (175 μL) was removed and the aggregate was re-suspended in 175 μL PBS and pelleted again before further preparation for gel analysis and spin-filter assisted digest for quantitative MS/MS.
(§3) The fibril-protein pellets were transferred to spin-filters (0.22 μm), washed twice in PBS (100 μL) and once in 1 M NaCl (100 μL). The fibrils and fibril-bound proteins were dissolved by one-hour incubation in 100 μL 6 M guanidinium chloride followed by elution from the spin-filter. The eluted proteins were loaded onto a 3 kDa MWCO filter unit for filter-assisted unfolding, reduction, alkylation, and trypsin digestion. In brief, samples were washed twice in 8 M urea, once in 8 M urea with 50 mM DTT, once in 8 M urea with 50 mM iodoaceteamide, and twice in 8 M Urea. The filter units were dried by centrifugation (14,000 g in 30 minutes) after every addition. Trypsin digestion was carried out with 0.25 μg sequencing grade trypsin from Sigma Aldrich in 50 mM ammonium bicarbonate overnight at 37 °C. The tryptic peptides were collected by centrifugation, acidified with TFA (0.1%) and micro-purified using POROS R2 column material (Applied Biosystems) packed in P200 pipette tips (Sarstedt).
(§4) LC-MS/MS analyses were performed on an EASY-nLC II system (Thermo Fisher Scientific) connected to a TripleTOF 5600+ mass spectrometer (Sciex) equipped with a NanoSpray III source (Sciex) and operated under Analyst TF 1.6.0 control.
(§5) The micro-purified tryptic peptides were dissolved in 0.1% formic acid, injected and trapped on an in-house packed trap column (2 cm × 100 μm I.D) with RP ReproSil-Pur C18-AQ 3 μm resin (Dr. Maisch GmbH). Peptides were eluted from the trap column and separated on a 15 cm analytical column (75 μm i.d.) packed in-house in a pulled emitter with RP ReproSil-Pur C18-AQ 3 μm resin (Dr. Maisch GmbH). Elution from the analytical column was performed with a linear gradient from 5% to 35% phase B (90% acetonitrile with 0.1% formic acid) over 20 min for protein identification and 50 min for quantitative analysis, respectively.
(§6) All samples were analysed three times, yielding nine MS/MS experiments for each fibril for both plasma and CSF. For the area-based extracted ion chromatogram (XIC) quantification, the acquisition method was set up as an information-dependent acquisition (IDA) experiment collecting up to 25 MS/MS spectra in each 1.6 sec cycle using an exclusion window of 6 sec.
(§7) XIC quantification was based on the average ion intensity of the three most abundant peptides for each protein. Only proteins quantified in at least four out of nine MS/MS experiments per fibril were included in the quantification. The total ion scores were visualized after grouping the proteins according to function (Figure S11).
(§8) For each MS/MS experiment, the ion intensities of the individual proteins were normalized to the total ion intensity of that MS/MS experiment to achieve a relative protein composition. The contribution of each protein was averaged over all nine MS/MS experiments (Tables 1 and 2).

[9] = test system: T2, Ab2 fibrils; assay: Fibril incubation with plasma, quantitative MS/MS of bound proteins; format: binding, human; conditions: 50:1 w/w plasma protein:fibril
[10] = molecular target: T3, glucagon fibrils; assay: Fibril incubation with CSF, quantitative MS/MS of bound proteins; format: binding; conditions: 4:1 w/w CSF protein:fibril
Experimental: as §2, §3, §4, §5, §6, §7, §8

[11] = molecular target: T4, C-36 fibrils; assay: Fibril incubation with plasma, quantitative MS/MS of bound proteins; format: binding; conditions: 50:1 w/w plasma protein:fibril
[12] = test system: T6, FAS4-AD aggregates; assay: as above; format: binding, human; conditions: 50:1 w/w plasma protein:fibril
T6 construct: aggregates of a mutated version of the FAS1-4 domain of TGFBIp
Outline: (§9)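 Fibrils (20 μg) were incubated 1 h at room temperature with plasma (500 μg) or CSF (40 μg) protein in PBS/5 mM EDTA, then pelleted, washed in PBS and 1 M NaCl, and dissolved in 6 M GdmCl. Bound proteins were trypsin-digested for LC-MS/MS and quantified by XIC of the top three peptides, normalized to total ion intensity.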

[13] = test system: T1, Ab1 fibrils; assay: as above; format: binding, human; conditions: 50:1 w/w plasma protein:fibril
Outline: as §9

[14] = test system: fibril systems (Ab1, Ab2, glucagon, αSN and C-36); assay: Fibril incubation with plasma, quantitative MS/MS, span over the fibril systems; format: binding, human
Experimental: Plasma and CSF solutions were centrifuged (40,000 g, 20 min) to remove any aggregates. The protein concentration was determined using 280 nm absorbance assuming 1 Abs = 1 mg/mL. […] Control samples (without fibril material) were prepared similarly. All samples were incubated at room temperature for one hour under gentle agitation. Fibrils and fibril-bound proteins were pelleted by centrifugation at 17,000 g for 30 minutes. The supernatant (175 μL) was removed and the aggregate was re-suspended in 175 μL PBS and pelleted again before further preparation for gel analysis and spin-filter assisted digest for quantitative MS/MS.
The fibril-protein pellets were transferred to spin-filters (0.22 μm), washed twice in PBS (100 μL) and once in 1 M NaCl (100 μL). The fibrils and fibril-bound proteins were dissolved by one-hour incubation in 100 μL 6 M guanidinium chloride followed by elution from the spin-filter. […]
The micro-purified tryptic peptides were dissolved in 0.1% formic acid, injected and trapped on an in-house packed trap column (2 cm × 100 μm I.D) with RP ReproSil-Pur C18-AQ 3 μm resin (Dr. Maisch GmbH). […] Elution from the analytical column was performed with a linear gradient from 5% to 35% phase B (90% acetonitrile with 0.1% formic acid) over 20 min for protein identification and 50 min for quantitative analysis, respectively.
All samples were analysed three times, yielding nine MS/MS experiments for each fibril for both plasma and CSF. For the area-based extracted ion chromatogram (XIC) quantification, the acquisition method was set up as an information-dependent acquisition (IDA) experiment collecting up to 25 MS/MS spectra in each 1.6 sec cycle using an exclusion window of 6 sec. […]
XIC quantification was based on the average ion intensity of the three most abundant peptides for each protein. Only proteins quantified in at least four out of nine MS/MS experiments per fibril were included in the quantification. […]

[15] = molecular target: T4, C-36 fibrils; assay: Fibril incubation with CSF, quantitative MS/MS of bound proteins; format: binding; conditions: 4:1 w/w CSF protein:fibril
Experimental: as §2, §3, §4, §5, §6, §7, §8

[16] = molecular target: T5, αSN fibrils; assay: as above; format: binding; conditions: 4:1 w/w CSF protein:fibril
Experimental: as §2, §3, §4, §5, §6, §7, §8

[17] = molecular target: T5, αSN fibrils; assay: Fibril incubation with plasma, quantitative MS/MS of bound proteins; format: binding; conditions: 50:1 w/w plasma protein:fibril
Outline: as §9

[18] = test system: T6, FAS4-AD aggregates; assay: Fibril incubation with CSF, quantitative MS/MS of bound proteins; format: binding, human; design: key to Identification status of CSF protein bound: FAS4-AD: *: Identified, but not quantified; —: Not identified in any of the samples; conditions: symbol cells
Experimental: as §2, §3, §4, §5, §6, §7, §8

[19] = test system: T2, Ab2 fibrils; assay: as above; format: binding, human; conditions: 4:1 w/w CSF protein:fibril
Experimental: as §2, §3, §4, §5, §6, §7, §8

Molecule	Ligand bound (binding capacity) [1]	Ligand bound (binding capacity) [2]	pKd [3]	Ligand bound (binding capacity) [4]	Ligand bound (binding capacity) [5]	Ligand bound (binding capacity) [6]	Relative composition of plasma proteins bound: Glucagon [7]	Relative composition of CSF proteins bound: Ab1 [8]	Relative composition of plasma proteins bound: Ab2 [9]	Relative composition of CSF proteins bound: Glucagon [10]	Relative composition of plasma proteins bound: C-36 [11]	Relative composition of plasma proteins bound: FAS4-AD [12]	Relative composition of plasma proteins bound: Ab1 [13]	contribution to the fibril interactomes [14]	Relative composition of CSF proteins bound: C-36 [15]	Relative composition of CSF proteins bound: αSN [16]	Relative composition of plasma proteins bound: αSN [17]	Identification status of CSF protein bound: FAS4-AD [18]	Relative composition of CSF proteins bound: Ab2 [19]
O=S(=O)(O)c1cc(S(=O)(=O)O)c2c(/N=N/c3ccccc3)c(O)ccc2c1 [Orange-G]	7 nmol/mg fibril	4 nmol/mg fibril	~4.30	6 nmol/mg fibril	28 nmol/mg fibril	6 nmol/mg fibril	–	–	–	–	–	–	–	–	–	–	–	–	–
Apolipoprotein A-I: plasma/CSF protein bound to fibrils	–	–	–	–	–	–	11.7 ± 1.4 % of total protein	3.9 ± 0.4 % of total protein	14.9 ± 7.0 % of total protein	2.6 ± 0.8 % of total protein	13.5 ± 0.5 % of total protein	15.7 ± 4.6 % of total protein	8.8 ± 0.9 % of total protein	8.8–14.9%	5.0 ± 1.6 % of total protein	2.7 ± 1.0 % of total protein	14.7 ± 3.0 % of total protein	*	2.9 ± 0.6 % of total protein
O=C(O)c1cc(/C=C/c2ccc(/C=C/c3ccc(O)c(C(=O)O)c3)c(F)c2)ccc1O [FSB, (E,E)-1-fluoro-2,5-bis-(3-hydroxycarbonyl-4-hydroxy)styrylbenzene]	45 nmol/mg fibril	54 nmol/mg fibril	–	128 nmol/mg fibril	197 nmol/mg fibril	123 nmol/mg fibril	–	–	–	–	–	–	–	–	–	–	–	–	–
